Reference: patent US20070275960A1, “Phenyl and pyridyl compounds for inflammation and immune-related uses” (Synta Pharmaceuticals Corp., priority 2006, published 2007)

These molecules were tested on IL-2 production (assay: Inhibition of IL-2 production in PHA-activated Jurkat cells (ELISA)). Settings: Homo sapiens, Jurkat, 20 h, PHA 2.5 μg/mL, 20 hours at 37° C., IL-2 by ELISA.
Type: cell-based
Method: Jurkat cells were placed in a 96 well plate (0.5 million cells per well in 1% FBS medium) then a test compound of this invention was added at different concentrations. After 10 minutes, the cells were activated with PHA (final concentration 2.5 μg/mL) and incubated for 20 hours at 37° C. under CO2. The final volume was 200 μL. Following incubation, the cells were centrifuged and the supernatants collected and stored at −70° C. prior to assaying for IL-2 production. A commercial ELISA kit (IL-2 Eli-pair, Diaclone Research, Besancon, France) was used to detect production of IL-2, from which dose response curves were obtained. The IC50 value was calculated as the concentration at which 50% of maximum IL-2 production after stimulation was inhibited versus a non-stimulation control.

Structure (SMILES) | IC50 [µM]
CCOC(=O)c1nc(-c2ccc(NC(=O)c3c(F)cccc3F)cc2)c(C)s1 [Compound 123, 2,6-Difluoro-N-[4-(5-methyl-2-ethoxycarbonyl-thiazol-4-yl)-phenyl]-benzamide] | 0.123
Cc1cnccc1C(=O)Nc1ccc(-c2cc(-c3ncco3)sc2C)cc1 [Compound 124, 3-Methyl-N-[4-(2-methyl-5-oxazol-2-yl-thiophen-3-yl)-phenyl]-isonicotinamide] | 0.0086
Cc1cc(-c2ccno2)sc1-c1ccc(NC(=O)Nc2c(F)cccc2F)cc1 [Compound 125, 1-(2,6-difluoro-phenyl)-3-[4-(5-isoxazol-5-yl-3-methyl-thiophen-2-yl)-phenyl]-urea] | 0.0025
Cc1cc(-c2cnco2)sc1-c1ccc(NC(=O)Nc2c(F)cccc2F)cc1 [Compound 126, 1-(2,6-difluoro-phenyl)-3-[4-(5-oxazol-5-yl-3-methyl-thiophen-2-yl)-phenyl]-urea] | 0.0024

Next, values leading:

IC50 [µM] | Structure (SMILES)
0.041 | Cc1cc(-c2cnco2)sc1-c1ccc(NC(=O)Nc2ccncc2F)cc1 [Compound 127, 1-(3-fluoro-pyridin-4-yl)-3-[4-(5-oxazol-5-yl-3-methyl-thiophen-2-yl)-phenyl]-urea]
0.019 | Cc1cc(-c2ccno2)sc1-c1ccc(NCc2ccncc2F)cc1 [Compound 128, (3-Fluoro-pyridin-4-ylmethyl)-[4-(5-isoxazol-5-yl-3-methyl-thiophen-2-yl)-phenyl]-amine]
0.0744 | Cc1cc(-c2cnco2)sc1-c1ccc(NCc2ccncc2F)cc1 [Compound 129, (3-Fluoro-pyridin-4-ylmethyl)-[4-(5-oxazol-5-yl-3-methyl-thiophen-2-yl)-phenyl]-amine]
